Results on 3 compounds are retold here after article PMC10305119, “Analogs of 6-Bromohypaphorine with Increased Agonist Potency for α7 Nicotinic Receptor as Anti-Inflammatory Analgesic Agents” (Marine Drugs, 2023).

As usually defined, the IC50 is the point on the concentration scale where inhibition reaches its midpoint.

One test has as its target T1, α9α10 nAChR (Homo sapiens, UniProt Q9GZZ6+Q9UGM1).
T1 construct: expressed in transfected cells; host or cells: Xenopus oocytes injected with in vitro transcribed RNA
The test is described as follows: Two-electrode voltage-clamp on α9/α10 nAChR in Xenopus oocytes. It counts as cell-based. As for the experimental part:
Recordings were performed using Axopatch 200 amplifier in two-electrode voltage-clamp setup (Molecular Devices, LLC, San Jose, CA, USA) on oocytes removed from mature Xenopus frogs. Two to three days before taking recordings, oocytes were injected with in vitro transcribed RNA, coding α9 and α10 nAChR and kept at 18 °C in ND96 electrophysiology buffer solution (5 mM HEPES/NaOH at pH 7.6 and 18 °C, 96 mM NaCl, 2 mM KCl, 1.8 mM CaCl2, 2 mM MgCl2).
(In general: In two-electrode clamp one electrode senses voltage and the other passes current.)

The subject of a further test is ERK 1/2 phosphorylation. The test is described as follows: ERK1/2 phosphorylation in LPS-stimulated macrophages (flow cytometry). It counts as cell-based, human. The following applies: compound 1 h, then LPS 3 h; control MFI 194; listed as 6ID. How it is done:
To gain an insight into the signaling induced by the tested compounds, ERK1/2 and STAT3 phosphorylation was checked. Macrophages were treated with tested compounds for 1 h, after which they were stimulated with LPS for 3 h.
(§1) Peripheral blood mononuclear cells (PBMCs) were separated by Ficoll-Paque PLUS density gradient centrifugation. PBMCs were placed in a sterile Petri dish and incubated at 37 °C for 2 h. Unattached cells were then removed by washing with PBS and substituted with fresh complete RPMI 1640 medium. To generate monocyte-derived macrophages (MDMs), 50 ng/mL GM-CSF was added to the isolated monocytes and cultured for 6 days to differentiate them into non-polarized MDMs.
Figure 5 Effects of the analyzed compounds on signaling pathways in LPS-stimulated macrophages. Cells were treated with PNU 282987, hypaphorine, or 6-iodohypaphorine methyl ester (6ID) for 1 h and then stimulated with LPS for 3 h. Phosphorylated ERK1/2 and STAT3 were quantified by flow cytometry with specific antibodies. […] (c): Representative histogram showing the increase in ERK 1/2 phosphorylation in comparison to control. The numbers in the histograms show the MFI ± SD (n = 3). MFI—geometrical mean fluorescence intensity. One-way ANOVA tests with Tukey post hoc test: * p ˂ 0.05, ** p ˂ 0.01, *** p < 0.001 in comparison with untreated cells. […]
For orientation: Flow cytometry measures light scatter and fluorescence of single cells or particles in a stream.

Test [1] deals with T2, human α3-containing nAChRs (Homo sapiens, UniProt P32297).
T2 construct: endogenous in cells; host or cells: human neuroblastoma SH-SY5Y
T2 sequence (P32297 32-505): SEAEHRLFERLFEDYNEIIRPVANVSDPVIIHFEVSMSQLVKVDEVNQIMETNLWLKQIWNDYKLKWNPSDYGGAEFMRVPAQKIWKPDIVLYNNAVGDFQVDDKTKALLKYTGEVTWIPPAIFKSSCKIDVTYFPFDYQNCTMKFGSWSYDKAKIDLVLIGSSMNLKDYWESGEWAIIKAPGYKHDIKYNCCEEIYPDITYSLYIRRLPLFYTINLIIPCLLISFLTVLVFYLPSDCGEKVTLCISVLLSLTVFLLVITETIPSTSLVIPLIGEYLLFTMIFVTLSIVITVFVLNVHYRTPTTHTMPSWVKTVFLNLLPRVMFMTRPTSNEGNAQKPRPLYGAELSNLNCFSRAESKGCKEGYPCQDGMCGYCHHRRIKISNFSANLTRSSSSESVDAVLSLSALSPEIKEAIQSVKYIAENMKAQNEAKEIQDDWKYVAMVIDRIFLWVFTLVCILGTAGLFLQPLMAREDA
Kind of test: Calcium imaging of α3-containing nAChRs in SH-SY5Y cells (nicotine-induced calcium rise). The class given is cell-based. As for the experimental part: Two of the studied compounds with high and medium agonist potency for α7 nAChR (6CF and 6ID, Table 1) were tested for activity toward α3* nAChR by calcium imaging.
Normalized data are presented as mean ± standard error. n = 6–7.

The subject of test [2] is CD11c expression on macrophages. The test is described as follows: Flow cytometry of macrophage membrane protein CD11c. It counts as cell-based, human. The following applies: 48 h. As for the experimental part: The selective agonist PNU 282,987 increased CD11b and CD11c protein expression by an average of 10% and 26%, respectively (Figure 4a,b).
as §1
Figure 4 The effects of PNU 282987, hypaphorine, and D-6-iodohypaphorine methyl ester (6ID) on macrophage membrane proteins expression. Cells were treated with these compounds for 48 h and then analyzed by flow cytometry. PNU 282,987 led to an increase in the (a) CD11b and (b) CD11c expression. (c): All tested compounds led to a decrease in TLR4 expression. (d): Macrophages stimulation with hypaphorine and 6ID promoted an increase in CD86 expression. Results obtained in three independent experiments on macrophages from different donors and presented as mean ± SD. One-way ANOVA tests with Tukey post hoc test: * p ˂0.05, ** p ˂ 0.01, **** p < 0.0001 in comparison with untreated cells.

Another test concerns MIA-induced arthritis. The test is described as follows: Monoiodoacetate-induced arthritis model, functional tests. It counts as in vivo, Wistar female rats. As for the experimental part:
By the 8th day of the experiment, the maximum inflammation of the knee joint was noted. […] On the 8th and 16th days, the effect of the compound was assessed using a set of functional tests: weight distribution between the healthy and inflamed limbs immediately after the first 6ND injection (Figure 8a) and after eight days of 6ND administration (Figure 8b), muscle strength grasping the hind limbs after the first 6ND injection (Figure 8c) and after eight days of 6ND administration (Figure 8d), mechanical allodynia after the start of 6ND administration and after eight days of 6ND administration (Figure 8e,f, respectively), thermal hypersensitivity 2 h after administration of 6ND ([…]), and measuring the diameter of the knee joint (Figure 8h).
Four groups of animals were formed: control and three groups with modelling of inflammation by introducing monoiodoacetate (MIA). Three groups of animals were injected with 3 mg MIA in 50 μL of 0.9% sodium chloride through the patellar ligament into the intra-articular space of the right knee using a 29-G needle. Control rats received an equivalent volume of 0.9% sodium chloride.
Assessments of inflammation in vivo and functional tests were conducted on days 8 and 16 after arthritis model induction. Thermal and mechanical hypersensitivity and pain-induced articular disability were tested in this model. Body weight gain and paw oedema were also monitored during the experiment.
The inflamed paw withdrawal or licking latencies to thermal stimulation were measured on a hot plate device (Hot Plate Analgesia Meter, Columbus Instruments) with a set temperature of 53 ± 0.1 °C and a cut-off time of 60 s.
Mechanical hypersensitivity was measured by the electronic von Frey instrument (model BIO-EVF4; Bioseb, Vitrolles, France) used to vertically stimulate the center of the rat hind paw with increasing intensity. Measurements were repeated 3 times and the final value was obtained by averaging the 3 measurements.
Behavioral assessment of movement-caused pain was carried out in a hind limb grip strength test using a Grip Strength Meter (Columbus Instruments, Columbus, OH, USA) consisting of a wire mesh frame connected to the gauge. Rats were restrained and allowed to grasp the wire mesh frame with their hind paws and then were pulled backwards until the grip released. Three measurements were conducted with an interval of 30 s for the averaged grip strength calculation.

“Also recorded” adds a separate entry of the source.

T1 sequence (Q9UGM1 26-479 limits assumed): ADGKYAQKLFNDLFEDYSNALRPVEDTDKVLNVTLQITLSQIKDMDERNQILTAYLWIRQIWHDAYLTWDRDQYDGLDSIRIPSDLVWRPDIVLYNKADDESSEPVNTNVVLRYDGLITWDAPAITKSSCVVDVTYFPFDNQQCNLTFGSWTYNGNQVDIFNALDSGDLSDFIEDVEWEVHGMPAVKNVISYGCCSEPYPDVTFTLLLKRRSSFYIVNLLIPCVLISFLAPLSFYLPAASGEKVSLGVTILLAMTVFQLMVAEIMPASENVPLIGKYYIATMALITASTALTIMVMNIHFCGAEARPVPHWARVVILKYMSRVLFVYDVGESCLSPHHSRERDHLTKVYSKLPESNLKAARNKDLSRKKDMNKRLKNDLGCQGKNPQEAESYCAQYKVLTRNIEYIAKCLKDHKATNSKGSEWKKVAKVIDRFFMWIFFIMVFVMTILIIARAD
T1 sequence (Q9GZZ6 25-450): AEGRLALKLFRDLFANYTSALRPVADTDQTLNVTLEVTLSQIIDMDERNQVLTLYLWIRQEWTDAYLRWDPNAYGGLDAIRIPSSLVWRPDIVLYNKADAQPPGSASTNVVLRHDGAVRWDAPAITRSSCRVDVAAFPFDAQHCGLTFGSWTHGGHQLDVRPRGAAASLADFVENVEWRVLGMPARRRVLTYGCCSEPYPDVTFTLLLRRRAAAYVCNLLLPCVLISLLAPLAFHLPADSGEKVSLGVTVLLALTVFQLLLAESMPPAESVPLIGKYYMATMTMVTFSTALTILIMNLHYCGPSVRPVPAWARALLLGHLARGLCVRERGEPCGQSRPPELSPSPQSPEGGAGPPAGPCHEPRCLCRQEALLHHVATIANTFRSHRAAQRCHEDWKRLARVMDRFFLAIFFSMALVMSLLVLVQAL

Regarding `COC(=O)[C@@H](Cc1c[nH]c2cc(I)ccc12)[N+](C)(C)C` [Compound 1, (D)-6-iodohypaphorine methyl ester], on α9α10 nAChR, the “activity toward α9α10 nAChR” value was “almost inactive”. For the same compound, in the test with ERK 1/2 phosphorylation, the “ERK 1/2 phosphorylation, MFI” value came out at 274. The “agonism on α3* nAChR (calcium response)” value in test [1] (compound alone, listed as 6ID) is given as “does not evoke noticeable calcium response in range of 3–30 μM; also recorded: Neither 6ID, which was most active agonist of α7 nAChR, nor 6CF showed detectable agonism on α3* nAChR at concentrations up to 30 µM”. The IC50 in test [1] (inhibition of nicotine (100 μM)-induced calcium rise) is 4.4 ± 1 µM. Further, the “increase in CD11c protein expression” value in test [2] (listed as 6ID) is given as “not statistically significant; also recorded: but not 6ID or hypaphorine, leads to a significant increase”.
In the case of `COC(=O)C(Cc1c[nH]c2cc([N+](=O)[O-])ccc12)[N+](C)(C)C` (stereo not drawn) [Compound 5, methyl ester of 6-nitrohypaphorine], the “anti-oedemic and analgesic effects in arthritis rat model” value in the test on MIA-induced arthritis (i.p. doses 0.05–0.26 mg/kg) is “demonstrated anti-oedemic and analgesic effects”. Also, the “grip strength of affected limb” value in the test on MIA-induced arthritis (rats, 0.05 and 0.26 mg/kg, after eight days of administration, listed as 6ND) is listed as “significantly improved grip strength in MIA-induced arthritis in rats at a dose of 0.05 but not 0.26 mg/kg; also recorded: significantly improved grip strength of affected limb after eight days”. The “body weight distribution between healthy and affected limbs” value in the test on MIA-induced arthritis (rats, 0.05 and 0.26 mg/kg, days 8 and 16, listed as 6ND) is listed as “No significant influence of 6ND on recovery was detected; also recorded: did not influence body weight distribution”. For the same compound, the “thermal hyperalgesia in hot plate test” value in the test with MIA-induced arthritis (rats, 2 h after administration, listed as 6ND) is reported as “No significant effects of 6ND in hot plate test; also recorded: did not influence thermal hyperalgesia”. Further, in the test on MIA-induced arthritis (rats, 16 days after MIA, eight days of administration, listed as 6ND), the mechanical allodynia entry is recorded as “dose-dependent improvement in allodynia test 16 days after MIA injection; also recorded: analgesic (anti-allodynic) effect”. Moreover, in the test with MIA-induced arthritis (rats, listed as 6ND), the “oedema of the MIA-injected knee joint (diameter)” value was “Significant effect in dynamics of oedema was detected in rats treated with 0.05 mg/kg 6ND; also recorded: anti-oedemic effect on the MIA-injected joint”.
On to `C[N+](C)(C)[C@H](Cc1c[nH]c2ccccc12)C(=O)[O-]` [Compound 16, L-hypaphorine, reference compound], for which the “increase in CD11c protein expression” value in test [2] is on record as “but not 6ID or hypaphorine, leads to a significant increase”.
